# Where two headings read alike, the source gives them in different places.
# What was measured:
# Tlp11-LBD [1] = assay: Microscale thermophoresis (MST) of Tlp11-LBD; format: binding, C. jejuni ATCC 33560; details: for Kd: 250 nM protein
# Description: The His-tag dye (MO-L018 RED-tris-NTA, NanoTemper, Germany) was adjusted to a final concentration of 25 nM and used to label the purified protein with a His-tag. The compound was diluted to a series of concentrations in phosphate-buffered saline ([Duan et al., 2023]) with 0.05% Tween 20 (PBS-T) buffer and mixed in a ratio of 1:1 with protein. The mixtures were loaded into capillaries (Monolith™ Series capillaries, NanoTemper) by means of capillary action. Thermophoresis was measured using a Monolith™ NT.115 (NanoTemper) instrument, with 40% excitation and 40% MST power configuration. The time-traces of changes in fluorescence, which reflected the thermophoretic movement of labeled protein affected by different concentrations of compound were recorded, and the dose–response curves were fitted with the ‘temperature jump and thermophoresis’ mode. Data analysis was performed using MO. Affinity Analysis version 2.3 (NanoTemper) and Prism version 8.0.2 (GraphPad Software, United States).
# MST quantifies interaction affinities by detecting the direct movement of fluorescent molecules along temperature gradients in capillaries. Ligand binding changes the thermophoretic movement of proteins, which can be used to derive Kds, by sequentially scanning capillaries with different ligand concentrations. MST has been applied to the study of weak binding systems and validated to provide reliable results ([Linke et al., 2016]; [Gao et al., 2021]). […] We also tested the binding abilities of methyl pyruvate analogues to Tlp11-LBD using MST (Supplementary Table S3).
# [2] = tested on: C. jejuni NCTC 11168ΩTlp11 cells; format: cell-based, Campylobacter jejuni
# [3] = tested on: C. jejuni WT NCTC 11168 cells; format: cell-based, Campylobacter jejuni
# [4] = tested on: Tlp11[1-342]-Tar[200-553] (Tlp342Tar200); assay: Microfluidic chemotaxis of E. coli expressing hybrid chemoreceptor Tlp342Tar200; format: cell-based, E. coli VS188; details: for effect on chemotaxis towards methyl pyruvate of E. coli with Tlp342Tar200 / effect on responses to glucose of E. coli with Tlp342Tar200: cells incubated in 10 mM compound; for chemotactic response of E. coli expressing Tlp342Tar200 as the sole receptor: microfluidic device, 50 min
# Description: The E. coli cells expressing hybrid chemoreceptor and GFP were grown in tryptone broth, up to an OD600 of 0.55, at 34°C, with shaking at 250 rpm. The cells were harvested by means of centrifugation at 5,000 rpm, washed twice with Tethering Buffer (10 mM KH2PO4, 10 mM K2HPO4, and 0.1 mM EDTA, pH 7.0), and resuspended in Tethering Buffer such that an OD600 of 5.5 was attained. The chemotactic responses of E. coli cells to the compounds were measured using a microfluidic device ([Si et al., 2012]). The collected E. coli cells were added to the sink pores of the device and allowed to freely diffuse into the observation channel for 40 min. Subsequently, the compound solution was added to the source pores, to establish a concentration gradient gradually in the observation channel of the device. Fluorescence intensity in the observation channel was detected using an LSM 800 laser scanning confocal microscope (Zeiss, Germany). Data were analyzed using ImageJ software.
# To determine whether methyl pyruvate stimulates transmembrane signaling through Tlp11-LBD, we fused C. jejuni ATCC 33560 Tlp11-LBD with the cytoplasmic region of the E. coli chemoreceptor Tar to construct Tlp11-Tar hybrid chemoreceptors (Figure 3A). Five hybrid receptors with different fusion positions in the second transmembrane helix (TM2) were obtained: Tlp11[1-342]-Tar[200-553] (Tlp342Tar200), Tlp11[1-343]-Tar[200-553] (Tlp343Tar200), Tlp11[1-346]-Tar[204-553] (Tlp346Tar204), Tlp11[1-347]-Tar[204-553] (Tlp347Tar204), and Tlp11[1-348]-Tar[204-553] (Tlp348Tar204) (Supplementary Figure S5A). To verify the activities of these hybrid chemoreceptors, we expressed each protein as a chimera in green fluorescent protein (GFP)-labeled E. coli VS188 without any other chemoreceptors, such that each hybrid receptor served as the only chemoreceptor in the E. coli. […] These chemotactic responses triggered by glucose through the phosphotransferase system are independent of the chemoreceptor LBD ([Neumann et al., 2012]). […] Thus, we used this hybrid receptor for subsequent chemotaxis measurements.
# C. jejuni ATCC 33560 = assay: Growth curves in Minimal Essential Medium; format: cell-based, Campylobacter jejuni; details: Minimal Essential Medium with fetal bovine serum, shaking; methyl pyruvate at concentrations above 1 mM
# Description: The C. jejuni ATCC 33560, C. jejuni WT NCTC 11168 and 11168ΩTlp11 cells were grown on a MH agar plate overnight, at 37°C, under microaerobic conditions. The colonies were suspended in PBS ([Duan et al., 2023]), pH 7.2, inoculated into Minimal Essential Medium broth (Life Technologies) containing 10% fetal bovine serum to an initial OD600 of 0.01, and grown at 37°C, 100 rpm, under microaerobic conditions. When required, Minimal Essential Medium was supplemented with different concentrations of methyl pyruvate or pyruvate (both from Macklin, China).
# Tlp11-LBD [5] = tested on: Tlp11-LBD; design: method as in Day et al., 2016; details: ref Day et al., 2016; cited from earlier work
# [6] = tested on: C. jejuni 11168ΩTlp11/ΔCheY; format: cell-based, Campylobacter jejuni
# H. pylori = tested on: H. pylori; design: method as in Matilla and Krell, 2023; Zhou et al., 2023; details: increase from 25 upon combination with amoxicillin and clarithromycin, clinical studies, ref Matilla and Krell, 2023, Zhou et al.; cited from earlier work
# [7] = methyl pyruvate at pH 7.0, read-out: Kd of Tlp11-LBD binding
compound,measurement,setting,value
"c1ccc2ncccc2c1 [quinoline, Quinoline]",Kd,Tlp11-LBD [1]; [7],905 ± 180 µM
same,chemotactic response,[2],neither WT NCTC 11168 nor 11168ΩTlp11 cells exhibited chemotaxis
same,chemotactic response,[3],neither WT NCTC 11168 nor 11168ΩTlp11 cells exhibited chemotaxis
same,effect on chemotaxis towards methyl pyruvate of E. coli with Tlp342Tar200,[4],lost the chemotaxis towards methyl pyruvate
same,effect on responses to glucose of E. coli with Tlp342Tar200,[4],not affected
same,chemotactic response of E. coli expressing Tlp342Tar200 as the sole receptor,[4],failed to elicit a chemotactic response
"CC(=O)C(=O)O [pyruvate, Pyruvate]",binding to Tlp11-LBD,Tlp11-LBD [1]; maximum concentration 2.5 mM,did not bind
same,effect on growth of C. jejuni ATCC 33560,C. jejuni ATCC 33560,promotion of the growth
O=C[C@H](O)[C@@H](O)[C@@H](O)[C@H](O)CO [galactose],binding to Tlp11-LBD,Tlp11-LBD [5],bound directly
"CCOC(=O)C(C)=O [ethyl pyruvate, Ethyl pyruvate]",Kd,Tlp11-LBD [1]; read-out: Kd of Tlp11-LBD binding,2360 ± 170 µM
"Cc1ccccc1 [toluene, Toluene]",Kd,Tlp11-LBD [1]; [7],844 ± 172 µM
same,chemotactic response,"[2]; 11168ΩTlp11 cells, microfluidic device, 30 min",neither WT NCTC 11168 nor 11168ΩTlp11 cells exhibited chemotaxis
same,chemotactic response,"[3]; WT NCTC 11168 cells, microfluidic device, 30 min",neither WT NCTC 11168 nor 11168ΩTlp11 cells exhibited chemotaxis
same,effect on chemotaxis towards methyl pyruvate of E. coli with Tlp342Tar200,[4],lost the chemotaxis towards methyl pyruvate
same,effect on responses to glucose of E. coli with Tlp342Tar200,[4],not affected
same,chemotactic response of E. coli expressing Tlp342Tar200 as the sole receptor,[4],failed to elicit a chemotactic response
O=CO [formate],chemotactic response,[2],attractant response
same,chemotactic response,[3],attractive response
same,chemotactic response,[6],no chemotaxis
COc1ccc2[nH]c([S+]([O-])Cc3ncc(C)c(OC)c3C)nc2c1 (centres unmarked) [omeprazole],eradication rate of H. pylori,H. pylori,95%

# From PMC11111895, “Identification of a dCache-type chemoreceptor in Campylobacter jejuni that specifically mediates chemotaxis towards methyl pyruvate” (Frontiers in Microbiology, 2024)
